Measurements from a melting point compilation (Tetko et al.; mined from patent text by program, amines drawn as free bases though some values may be those of a salt).

`CCCCC1(O)c2cc(NC(=O)CC(C)(C)C)c(C)c(C)c2OC1(C)C` (stereo not drawn) gave a melting point of 161 to 162 °C.
Compound `CCOC(=O)C(c1ccc(Nc2nc(-c3cccc(NC(=O)c4ccc(C(C)(C)C)cc4)c3C)cn(C)c2=O)cc1)N(C)C(C)C` (stereo not drawn) has a melting point of 119 to 120 °C.
Work on `CCOC(=O)c1cnc(Cl)cc1NCc1ccc(OC)c(Cl)c1` yielded a melting point of 116 to 118 °C.
For `COc1cc(CCCn2ccnc2)ccc1OCc1coc(-c2ccc(C)s2)n1`, the melting point was 92 to 93 °C.
With `CCOC(=O)N1CCc2cc(S(=O)(=O)n3cc(-c4ccccc4)[nH]c3=O)ccc21` the melting point was 214 to 216 °C.
`Cc1nccn1-c1nc(-c2ccc(Cl)cc2)c(CCC(=O)OCc2ccccc2)o1` showed a melting point of 71 to 72 °C.
With `CC(=O)Nc1ccc2c(c1)N1CCN=C1S2` the melting point was 268 °C.
`Cc1cc2c(-c3cccc(-c4noc(=O)[nH]4)c3)c(CC(=O)Nc3ccc(F)cc3C(F)(F)F)c(=O)oc2cc1Cl` gave a melting point of 285 to 287 °C.
`O=c1[nH]c(N2CCN(Cc3ccccc3)C(CO)C2)cc2ccccc12` (stereo not drawn) showed a melting point of 176 to 177 °C.
`Nc1ccc2c(c1)C(=O)CC2` showed a melting point of 168 to 171 °C.
Work on `CNc1ccc(C(=O)N2CCN(CCc3ccc(SC)cc3)CC2)cc1` yielded a melting point of 120 to 121 °C.
With `CS(=O)(=O)c1ccc(-c2cc(C=O)cn2-c2ccc(F)cc2)cc1` the melting point was 98 to 100 °C.
Compound `O=C1CCCCCC1C(c1ccc(Cl)cc1)[N+](=O)[O-]` (racemic) has a melting point of 77 to 78 °C.
`O=C(Nc1cc(Cl)cc(Cl)c1)C(Cl)Cl` showed a melting point of 133 to 135 °C.
Compound `COc1ccc(-n2c3ccccc3c3cc(C(C#N)=C(C#N)c4cc(C(F)(F)F)cc(C(F)(F)F)c4)ccc32)cc1` has a melting point of 170 to 172 °C.
In the case of `CNC(=O)c1ccccc1Nc1nc(Nc2cc3c(cc2OC)CCN(CC(=O)N(C)C)CC3)ncc1Cl`, the melting point is reported as 83 to 89 °C.
For `COc1ccc(C(=O)Nc2ccc3ccc(C=CN(C)C)nc3n2)cc1`, the melting point was 240 °C.
`Oc1c2ncnc(S)c2nn1-c1ccccc1` gave a melting point of over 300 °C.
For `O=[N+]([O-])C=Cc1cc(Br)ccc1O`, the melting point was 165 to 167 °C.
For `COc1ccccc1COc1ccc(S(=O)(=O)c2ccc(C)nc2Nc2cc(F)c(N(C)C)cc2Cl)cc1`, the melting point was 68 to 70 °C.
With `Nc1nc(Cl)c2c(n1)OCC2` the melting point was 258 to 263 °C.
`CS(=O)(=O)N1CCN(c2ccc(OC[C@H]3CCn4cc([N+](=O)[O-])nc4O3)cc2)CC1` gave a melting point of 149 to 151 °C.
`O=C(CC(Cc1cccc2ccccc12)C(=O)N1C(=O)OCC1Cc1ccccc1)N1CCOCC1` (stereo not drawn) showed a melting point of 80 to 82 °C.
For `CCCCCCCCCCCCCCCCN(c1ccccc1)S(=O)(=O)c1ccc(Nc2cc(=O)n(-c3c(C)cc(Cl)cc3Cl)n2C(=O)OCC)cc1`, the melting point was 85 °C.
For `Cc1ccc(NC(=O)c2ccc(/C=C/C(=O)NOC3CCCCO3)cc2)cc1Nc1nc(-c2cccnc2)cs1` (stereo not drawn), the melting point was 168 °C.
Work on `CN1C(=O)c2cccnc2N(CCO)c2ccccc21` yielded a melting point of 133 to 134 °C.
For `Cc1ccc2[nH]c3c(cc(-c4cccc(C=O)c4)c(=O)n3C)c2c1`, the melting point was 280 °C.
For `CCOC(=O)C1=C(CN2C(=O)c3ccccc3C2=O)NC(CN2C(=O)c3ccccc3C2=O)=C(C(=O)OCC)C1c1ccccc1Cl`, the melting point was 162 to 164 °C.
In the case of `CC(C)CCCC(C)C1CCC2C3CC=C4CCCC(O)C4(C)C3CCC12C` (stereo not drawn), the melting point is reported as 102 to 103 °C.
For `Cc1nc(C(F)(F)F)ccc1C(=O)C1=C(Cl)C2CCC(C2)C1=O` (stereo not drawn), the melting point was 137 to 138 °C.
In the case of `CC(C)(C)OC(=O)NC(C(=O)O)C1(O)CCSC1` (stereo not drawn), the melting point is reported as 116 to 118 °C.
`COc1cc(Br)ccc1N` gave a melting point of 56.5 to 58 °C.
Work on `O=C(Nc1c(C(O)(C(F)(F)F)C(F)(F)F)ccc2ccccc12)c1cccc(Br)c1` yielded a melting point of 184 to 185 °C.
`Cc1nc2c(O)cccn2c(=O)c1CCO` gave a melting point of 150 °C.
`COc1cc(OC)c2c(=O)[nH]c(-c3cc(C)c(OCCn4ccnc4)c(C)c3)nc2c1` showed a melting point of 218 to 219 °C.
`O=C(c1ccsc1)c1cccc2ccccc12` gave a melting point of 50 °C.
In the case of `O=C(C=Cc1ccccc1C(=O)Cl)c1ccc([N+](=O)[O-])cc1`, the melting point is reported as 133 to 134 °C.
For `COc1cc(NS(=O)(=O)c2cccc(C(F)(F)F)c2)cc(OC)c1`, the melting point was 78 to 81 °C.
With `CNc1cc(-c2sc(N)nc2-c2cccc(C)n2)ccc1[N+](=O)[O-]` the melting point was 100 to 102 °C.
`N[C@@H](Cc1ccccc1)C(=O)NC(=O)OCc1ccccc1` gave a melting point of 158 to 160 °C.
`CN(C)C(c1ccccc1)(c1cccc(Oc2ccccc2)c1)C1CCCCC1(O)Cc1ccccc1` (stereo not drawn) gave a melting point of 189 to 190 °C.
`O=C1CN=C(c2ccccc2Cl)c2cc(I)ccc2N1` showed a melting point of 260 to 262 °C.
For `CC(C)(C)c1cc(CCc2ccccc2NC(=O)N2CCC(N3CCCCC3)CC2)cc(C(C)(C)C)c1O`, the melting point was 64 to 67 °C.
For `O=C(Cn1c(-c2ccc(Cl)cc2)nc2cccnc21)c1ccccc1`, the melting point was 211 to 212 °C.
In the case of `COc1ccc(C=C2NC(C(=O)Cc3cc(OC)c(OC)c(OC)c3)=Cc3ccccc32)cc1OC`, the melting point is reported as 164 to 170 °C.
Work on `CC(=O)Nc1ccc(CCN(C)C)c2cn[nH]c12` yielded a melting point of 223 °C.
Work on `C=CCC(C)(C)C(NC(=O)c1ccc(Cl)cc1)NC(=N[N+](=O)[O-])Nc1cccnc1` (stereo not drawn) yielded a melting point of 200 to 203 °C.
With `CC(C)n1cc(-c2ncc(N)nc2-c2ccc(F)cc2)ccc1=O` the melting point was 258 °C.
